In US9770026B2, “Substituted pyrimidine compound and uses thereof” (Shenyang Sinochem Agrochemicals R&D Co., Ltd., priority 2012, dated 2017):

Experiments:
cucumber downy mildew = test: protectant activity in vivo against cucumber downy mildew; conditions: Cucumis sativus, 168 h, protectant activity; for pest or weed control at 25 µg/mL: read-out: control effect against cucumber downy mildew (%), 25 mg/L; for pest or weed control at 50 µg/mL: read-out: control effect against cucumber downy mildew (%), 50 mg/L; for pest or weed control at 100 µg/mL: read-out: control effect against cucumber downy mildew (%), 100 mg/L; for pest or weed control at 400 µg/mL: read-out: control effect against cucumber downy mildew (%), 400 mg/L
cucumber gray mold = test: fungicidal activity in vitro (inhibition rate) against cucumber gray mold; format: cell-based; conditions: 25 ppm, in vitro; read-out: inhibition rate against cucumber gray mold
wheat powdery mildew = test: protectant activity in vivo against wheat powdery mildew; conditions: Triticum aestivum, 168 h, protectant activity; for pest or weed control at 400 µg/mL: read-out: control effect against wheat powdery mildew (%), 400 mg/L
Diamond back moth = test: insecticidal activity against diamond back moth, airbrush spray; format: in vivo; conditions: 72 h; for pest or weed control at 600 µg/mL: 600 mg/L
In short: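 Airbrush leaf-disc spray test: both faces of 2 cm cabbage discs received 0.5 ml of test solution at 0.7 kg/cm^2. Solutions were made in acetone:methanol (1:1) and brought to concentration with 0.1% Tween 80 in water. Ten second-instar larvae per disc, triplicates, were held at 25° C and 60˜70% R.H., with mortality recorded at 72 hrs.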

[1] = system: Green peach aphids (Myzus Persicae Sulzer); test: bioactivity test against green peach aphid, airbrush foliar spray; format: in vivo; conditions: Myzus persicae, foliar, 48 h, contrastive test, read-out: Insecticidal activity against peach aphid (%); for pest or weed control at 600 µg/mL: 600 mg/L; for pest or weed control at 10 µg/mL: 10 mg/L; for pest or weed control at 100 µg/mL: 100 mg/L
In short: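 Aphids (15-30 per cabbage leaf disc) on moist filter paper were airbrush-sprayed at 10 psi, 0.5 mL, with compound from acetone:methanol (1:1) diluted in water with 0.1% tween 80. Held at 25±1 C, 60±5% RH; survivors counted after 48 hrs to give death rates.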

rice blast = test: microbe, parasite or virus in culture; format: cell-based; conditions: Pyricularia oryzae; for inhibition at 8.3 ppm: read-out: inhibition rate against rice blast, 8.3 ppm, in vitro; for inhibition at 25 ppm: read-out: inhibition rate against rice blast, 25 ppm, in vitro
carmine spider mite = test: bioactivity test against carmine spider mite, airbrush spray; format: in vivo; conditions: Tetranychus cinnabarinus, 72 h, contrastive test, read-out: Insecticidal activity against carmine spider mite (% ); for pest or weed control at 600 µg/mL: 600 mg/L
In short: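 Broadbean seedlings infested with adult mites were sprayed with compound (acetone/methanol stock diluted in 0.1% Tween 80 water) by airbrush at 0.7 kg/cm^2, 0.5 ml. Three replicates were run. Mortality was scored after 72 hrs.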

armyworm = test: bioactivity test against armyworm, airbrush spray; format: in vivo; conditions: 72 h, read-out: Insecticidal activity against armyworm (%); for pest or weed control at 600 µg/mL: 600 mg/L
corn rust = test: protectant activity in vivo against corn rust; conditions: Zea mays, 168 h, protectant activity; for pest or weed control at 6.25 µg/mL: read-out: control effect against corn rust (%), 6.25 mg/L; for pest or weed control at 25 µg/mL: read-out: control effect against corn rust (%), 25 mg/L; for pest or weed control at 100 µg/mL: read-out: control effect against corn rust (%), 100 mg/L; for pest or weed control at 400 µg/mL: read-out: control effect against corn rust (%), 400 mg/L

Compound | pest or weed control at 25 µg/mL (cucumber downy mildew) [%] | pest or weed control at 50 µg/mL (cucumber downy mildew) [%] | pest or weed control at 100 µg/mL (cucumber downy mildew) [%] | pest or weed control at 400 µg/mL (cucumber downy mildew) [%] | inhibition at 25 ppm (cucumber gray mold) [%] | pest or weed control at 400 µg/mL (wheat powdery mildew) [%] | pest or weed control at 600 µg/mL (Diamond back moth) [%] | pest or weed control at 600 µg/mL [1] [%] | pest or weed control at 600 µg/mL (carmine spider mite) [%] | pest or weed control at 600 µg/mL (armyworm) [%] | pest or weed control at 400 µg/mL (corn rust) [%] | inhibition at 25 ppm (rice blast) [%] | pest or weed control at 10 µg/mL [1] [%] | pest or weed control at 100 µg/mL [1] [%] | further results
Cc1ncnc(NC(C)c2cccc3ccccc23)c1Cl (stereo not drawn) [CK17, reference compound] | 0 | 10 | 40 | 100 | 0 | 100 | 0 | 0 | 40 | 0 | 100 | – | – | – | pest or weed control at 6.25 µg/mL (wheat powdery mildew; read-out: control effect against wheat powdery mildew (%), 6.25 mg/L): 50%; pest or weed control at 25 µg/mL (wheat powdery mildew; read-out: control effect against wheat powdery mildew (%), 25 mg/L): 70%; pest or weed control at 100 µg/mL (wheat powdery mildew; read-out: control effect against wheat powdery mildew (%), 100 mg/L): 75%; inhibition at 2.8 ppm (rice blast; read-out: inhibition rate against rice blast, 2.8 ppm, in vitro): 0%; inhibition at 8.3 ppm (rice blast): 50%; pest or weed control at 6.25 µg/mL (corn rust): 0%; pest or weed control at 25 µg/mL (corn rust): 0%; pest or weed control at 100 µg/mL (corn rust): 0%
Cc1ncnc(NCc2ccc(Oc3nc(Cl)c(Cl)cc3Cl)cc2)c1Cl [CK33, reference compound] | – | – | – | 0 | 0 | 0 | 29 | 0 | 41 | 100 | 0 | < 50 | – | – | pest or weed control at 10 µg/mL (armyworm; 10 mg/L): 0%; pest or weed control at 100 µg/mL (armyworm; 100 mg/L): 0%
CCC(Nc1nc(Cl)nc(C(=O)OC)c1Cl)c1ccc(Oc2ncc(C(F)(F)F)cc2Cl)cc1 (stereo not drawn) [CK35, reference compound] | – | – | – | 60 | 0 | 0 | 0 | 0 | 0 | 0 | 0 | < 50 | – | – | –
Cc1nc(C)c(Cl)c(NCc2ccc(OCc3ccccc3)cc2)n1 [CK52, reference compound] | 70 | 90 | 98 | 100 | 0 | 0 | 20 | 88 | 44 | 0 | 85 | – | 0 | 0 | inhibition at 8.3 ppm (rice blast): 0%
CCc1ncnc(NC(=O)Cc2ccc(Oc3ccc(C(F)(F)F)cn3)cc2)c1Cl [CK55, reference compound] | 0 | 0 | 0 | 100 | 0 | 60 | 0 | 0 | 0 | 0 | 0 | < 50 | – | – | –
Cc1ncnc(NC(=O)Cc2ccc(Oc3ccc(C(F)(F)F)cn3)cc2)c1Cl [CK56, reference compound] | 0 | 0 | 10 | 100 | < 50 | 70 | 0 | 100 | 32 | 0 | 70 | < 50 | 0 | 0 | pest or weed control at 10 µg/mL (carmine spider mite; 10 mg/L): 0%; pest or weed control at 100 µg/mL (carmine spider mite; 100 mg/L): 25%
Cc1ncnc(NC(=O)Cc2ccc(Oc3ccc(C(F)(F)F)cc3Cl)cc2)c1Cl [CK58, reference compound] | – | – | – | 0 | 0 | 0 | 0 | 100 | 0 | 0 | 0 | < 50 | 0 | 0 | –
CCc1ncnc(NC(=O)Cc2ccc(Oc3ccc(C(F)(F)F)cc3)cc2)c1Cl [CK59, reference compound] | – | – | – | 80 | 0 | 0 | 57 | 75 | 0 | 14 | 0 | 0 | 0 | 15 | –
Cc1ncnc(NC(=O)Cc2ccc(Oc3ncc(C(F)(F)F)cc3Cl)cc2)c1Cl [CK60, reference compound] | 0 | 0 | 10 | 100 | 0 | 0 | 86 | 81 | 0 | 0 | 0 | 0 | 0 | 0 | pest or weed control at 10 µg/mL (Diamond back moth; 10 mg/L): 15%; pest or weed control at 100 µg/mL (Diamond back moth; 100 mg/L): 25%
Cc1ncnc(NC(=O)Cc2ccc(Oc3ccc(C(F)(F)F)cc3)cc2)c1Cl [CK61, reference compound] | 30 | 85 | 90 | 100 | 0 | 70 | 0 | 88 | 0 | 0 | 0 | 0 | 0 | 0 | –
CC(Cl)c1ncnc(NCCc2ccc(Oc3nc(Cl)c(Cl)cc3Cl)cc2)c1Cl (stereo not drawn) [CK63, reference compound] | – | – | – | 70 | 0 | 50 | 57 | 100 | 0 | 71 | 100 | 0 | 0 | 0 | pest or weed control at 6.25 µg/mL (corn rust): 0%; pest or weed control at 25 µg/mL (corn rust): 0%; pest or weed control at 100 µg/mL (corn rust): 30%
